Assay results reported in patent US20190360054A1, “METHOD FOR DIAGNOSIS OF METASTATIC CANCER OR TAXANE-BASED DRUG-RESISTANT CANCER BY USING LMCD1 PROTEIN AND GENE CODING THEREFOR” (AICT (ADVANCED INSTITUTES OF CONVERGENCE TECHNOLOGY), priority 2016, published 2019).

Tests used:
[1] = system: LMCD1-overexpressing MCF10CA1a.cl1 cells; test: MTT assay of susceptibility to paclitaxel in LMCD1-overexpressing cells; format: cell-based, human; conditions: MCF10CA1a.cl1 cells when LMCD1 was overexpressed, 72 hours
Procedure: To investigate whether LMCD1 protein-overexpressing breast cancer cells have resistance to a taxane-based anticancer agent, an MTT assay, which is used to evaluate cell viability, was performed on MCF-10CA1a.cl1, which are human MCF-10A-based breast cancer cell lines, and MDA-MB231. The MCF-10CA1a.cl1 and MDA-MB231 cell lines are characterized as malignant breast cancer cell lines with high metastasis.
In particular, human MCF-10A-based breast cancer cell lines, i.e., MCF-10CA1a.cl1 and MDA-MB231, were maintained in a DMEM culture solution containing 10% fetal bovine serum and 1% penicillin/streptomycin (WeIGENE) in a CO2 incubator at 37° C.
To overexpress the LMCD1 protein in cells, LMCD1 was cloned into retroviral vector pLPCX, and LMCD1 retrovirus was obtained using Plat-GP cells. The metastatic breast cancer cells were infected with the LMCD1 retrovirus, LMCD1 protein-overexpressing cells were selected using puromycin, and then the selected cells were incubated in a DMEM culture solution containing 10% fetal bovine serum and 1% penicillin/streptomycin (WeIGENE) in a CO2 incubator at 37° C.
The cells were seeded in 96 wells at a density of 3,000 cells per well and incubated for 24 hours. […] Absorbance at 580 nm was measured using a 96-well microplate detector (Molecular Devices).

[2] = Production of paclitaxel-resistant cells by repeated paclitaxel treatment; format: cell-based; conditions: paclitaxel raised in increments of 0.5 nM over passages; read-out: IC50 value of paclitaxel at which the resistant cells did not die
Procedure: In particular, parental cells were treated with paclitaxel at a small concentration of 0.5 nM, and alive cells were repeated treated with paclitaxel three or four times while being passaged.

[3] = system: MCF10CA1a.cl1 cells, MDA-MB231 cells; test: MTT assay of paclitaxel resistance after Smad3 EPSM adenovirus infection; format: cell-based, human
Text: GFP, Smad3 wild-type, C-terminal phosphorylation-inhibiting mutant (3SA), Smad3 linker phosphorylation-activating mutant (STD), and a Smad3 linker phosphorylation-inhibiting mutant (EPSM) adenovirus were supplied from Dr. Sushil G. Rane (NIDDK, NIH, Bethesda, Md.). To measure transduction efficiency, GFP adenovirus was used as a control. The cells were transfected with 75 to 100 virus particles/cell in a cell solution, and each transfection procedure was repeated three times.
In particular, MCF10CA1a.cl1 cells, MDA-MB231 cells, and the cells produced according to Example 3-1 were seeded in 96-wells at a density of 3,000 cells/well and incubated for 24 hours. The culture solution was removed and a culture solution containing paclitaxel or docetaxel was added to each well to a final volume of 100 μl/well. After incubation for 72 hours, the culture solution was removed from the culture, and 0.5 mg/ml of 3-(4,5-dimethylthiazol-2-yl)-2,5-diphenyltetrazolium bromide (MTT) was added to each well, followed by incubation for 2 hours. Media containing an MTT solution was carefully removed, and 200 μl of dimethyl sulfoxide was added to each well, followed by incubation at room temperature for 5 minutes. Absorbance at 580 nm was measured using a 96-well microplate detector (Molecular Devices).

[4] = system: MCF10CAT1k.cl2 (M-II) and MCF10CA1a.cl1 cells; test: MTT assay of paclitaxel resistance after treatment with LMCD1-containing conditioned media; format: cell-based, human; conditions: cells treated with conditioned media of LMCD1-overexpressing MCF10CA1a.cl1 cells
Procedure: For MTT assay to examine resistance to paclitaxel, the cells were seeded in 96 wells at a density of 3,000 cells per well and incubated for 24 hours. The culture solution was removed, and a culture solution containing the concentrated conditioned media acquired from LPCX and LMCD1-overexpressing MCF10CA1a.cl1 cells was added to each well to a final volume of 100 μl/well. After incubation for 72 hours, the culture solution was removed from the culture, and 0.5 mg/ml of 3-(4,5-dimethylthiazol-2-yl)-2,5-diphenyltetrazolium bromide (MTT) was added to each well, followed by incubation for 2 hours. PBS containing an MTT solution was carefully removed, and 200 μl of dimethyl sulfoxide was added to each well, followed by incubation at room temperature for 5 minutes. Absorbance at 580 nm was measured using a 96-well microplate detector (Molecular Devices).

[5] = system: LMCD1 promoter in MCF10CA1a.cl1 cells; test: LMCD1 promoter luciferase assay with TGF-β stimulation; format: cell-based, human; conditions: 3 ng/ml TGF-β, 24 hours, Smad3 EPSM adenovirus-infected cells
Procedure: In particular, for the LMCD1 promoter analysis, MCF10CA1a.cl1 cells were infected with GFP and Smad3. EPSM adenovirus for 2 days, and then transiently transfected with an Lmcd1 promoter using FuGENE HD (Promega). 24 hours before harvesting, the cells were stimulated with 3 ng/ml of TGF-β. Luciferase activity was analyzed using a Luciferase Assay System kit (Promega) in accordance with the manufacturer's protocol. All assays were performed in triplicate, and all values were normalized to transfection efficiency as determined by β-galactosidase activity.

[6] = system: LMCD1 mRNA in MDA-MB231 cells; test: RT-PCR of LMCD1 mRNA after TGF-β treatment; format: cell-based, human; conditions: 5 ng/ml TGF-β, 24 hours, Smad3 EPSM adenovirus-infected cells
Procedure: For the measurement of LMCD1 mRNA, MDA-MB231 cells were infected with GFP and Smad3. EPSM adenovirus for 2 days, and then 2 hours before TGF-β treatment, the cells were pre-treated with 10 μM of SB431542 and treated with 5 ng/ml of TGF-β, followed by incubation for 24 hours. Total RNA was extracted from the cells using a TRIzol reagent (Invitrogen) in accordance with the manufacturer's protocol. The extracted RNA was converted into cDNA using M-MLV reverse transcriptase (Promega). The cDNA was synthesized and subjected to RT-PCR using a specific primer pair by using an AccuPower™ PCR PreMix kit (Bioneer Co.). Gene mRNAs were normalized to GAPDH.

Row | Compound | resistance to paclitaxel (cell viability, MTT) [1] | IC50 [2] | susceptibility to paclitaxel (MTT) ([3]; LMCD1 depleted in Smad3 EPSM adenovirus-infected cells (EPSM-SV-shLmcd1 #1)) | paclitaxel resistance (cell viability, MTT) ([3]; Smad3 linker phosphorylation blocked (EPSM adenovirus), compared to control) | resistance to paclitaxel (MTT) [4] | LMCD1 transcriptional activity (luciferase) [5] | LMCD1 mRNA expression level [6]
1 | CC(=O)O[C@H]1C(=O)[C@@]2(C)[C@H]([C@H](OC(=O)c3ccccc3)[C@]3(O)C[C@H](OC(=O)[C@H](O)[C@@H](NC(=O)c4ccccc4)c4ccccc4)C(C)=C1C3(C)C)[C@]1(OC(C)=O)CO[C@@H]1C[C@@H]2O [paclitaxel] | increased | 50 nM | restored | induced | significantly increased |  | 
2 | TGF-β |  |  |  |  |  | increased | increased
